Read-outs that look alike come from different tables or passages of the source.
How the values were obtained:
[1] = molecular target: T1, Human mTOR (FLAG-TOR) (Homo sapiens, UniProt P42345); assay: Human mTOR kinase assay with purified enzyme, DELFIA format; assay type: biochemical
T1 construct: FLAG
In short: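 DELFIA readout: Eu-anti-P(T389)-S6K antibody (40 ng/mL, 1 h) on captured His6-S6K from the stopped reaction. Kinase step used purified FLAG-tagged human mTOR with test compound in HEPES (pH 7.4)/MnCl2/DTT buffer, 2 h at room temperature (linear 1–6 h), terminated by EDTA/EGTA.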

[2] = system: breast line MDA468; assay: In vitro cell culture growth assay (MTS), MDA468; assay type: cell-based; conditions: Homo sapiens, 72 h, MDA468 cells, three days after drug treatment
In short: (§1)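 Inhibitors were added one day after plating, and viable cells were measured 3 days later by MTS conversion (absorbance 490 nm).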

[3] = system: prostate line LNCap; assay: In vitro cell culture growth assay (MTS), LNCap; assay type: cell-based; conditions: Homo sapiens, LNCaP, 72 h, LNCap cells, three days after drug treatment
In short: as §1

[4] = molecular target: T2, PI3K (Homo sapiens, UniProt P42336); assay: Fluorescence polarization assay for PI3K; assay type: biochemical; conditions: read-out: PI3 Kinase α IC50
T2 construct: PI3 Kinase α IC50; other: PI3 Kinase α; other: PI3 Kinase α isoform, fluorescence polarization
T2 sequence (P42336 whole entry, canonical isoform): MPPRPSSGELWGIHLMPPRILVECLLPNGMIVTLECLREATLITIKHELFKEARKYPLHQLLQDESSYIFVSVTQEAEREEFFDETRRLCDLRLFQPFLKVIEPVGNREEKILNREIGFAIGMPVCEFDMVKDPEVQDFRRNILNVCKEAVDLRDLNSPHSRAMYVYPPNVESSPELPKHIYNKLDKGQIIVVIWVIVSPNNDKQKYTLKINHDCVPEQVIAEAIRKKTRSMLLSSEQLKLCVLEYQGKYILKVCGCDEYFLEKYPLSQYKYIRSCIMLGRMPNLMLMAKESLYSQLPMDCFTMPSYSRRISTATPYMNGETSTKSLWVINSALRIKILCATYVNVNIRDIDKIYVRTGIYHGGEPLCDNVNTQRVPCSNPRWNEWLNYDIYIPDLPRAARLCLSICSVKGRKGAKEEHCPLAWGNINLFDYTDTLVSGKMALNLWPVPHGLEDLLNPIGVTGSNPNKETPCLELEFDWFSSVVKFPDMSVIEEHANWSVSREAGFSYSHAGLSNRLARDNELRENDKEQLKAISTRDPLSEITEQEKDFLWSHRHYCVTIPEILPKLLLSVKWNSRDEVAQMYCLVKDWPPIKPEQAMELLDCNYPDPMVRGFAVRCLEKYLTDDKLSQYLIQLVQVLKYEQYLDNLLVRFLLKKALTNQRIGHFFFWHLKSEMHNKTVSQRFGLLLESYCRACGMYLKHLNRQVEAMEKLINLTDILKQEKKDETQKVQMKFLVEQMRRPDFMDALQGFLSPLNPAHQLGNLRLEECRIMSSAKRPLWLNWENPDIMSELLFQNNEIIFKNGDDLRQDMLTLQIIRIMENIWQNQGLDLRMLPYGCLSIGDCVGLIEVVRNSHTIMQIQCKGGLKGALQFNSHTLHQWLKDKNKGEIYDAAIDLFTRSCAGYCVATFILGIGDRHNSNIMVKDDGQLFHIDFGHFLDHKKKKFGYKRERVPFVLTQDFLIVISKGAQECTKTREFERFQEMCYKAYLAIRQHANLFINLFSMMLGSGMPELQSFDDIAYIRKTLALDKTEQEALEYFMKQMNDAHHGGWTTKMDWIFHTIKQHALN
In short: (§2)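 Fluorescence-polarization competition readout: after 30–60 min of PIP2/ATP turnover in 1% DMSO, a stop mix with GST-GRP (70 nM) and red probe (10 nM) was added.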

[5] = molecular target: T3, PI3K (Homo sapiens, UniProt P48736); assay: Fluorescence polarization assay for PI3K; assay type: biochemical; conditions: read-out: PI3 Kinase γ IC50
T3 construct: PI3 Kinase γ IC50; other: PI3 Kinase γ; other: PI3 Kinase γ isoform, fluorescence polarization
T3 sequence (P48736 whole entry, canonical isoform): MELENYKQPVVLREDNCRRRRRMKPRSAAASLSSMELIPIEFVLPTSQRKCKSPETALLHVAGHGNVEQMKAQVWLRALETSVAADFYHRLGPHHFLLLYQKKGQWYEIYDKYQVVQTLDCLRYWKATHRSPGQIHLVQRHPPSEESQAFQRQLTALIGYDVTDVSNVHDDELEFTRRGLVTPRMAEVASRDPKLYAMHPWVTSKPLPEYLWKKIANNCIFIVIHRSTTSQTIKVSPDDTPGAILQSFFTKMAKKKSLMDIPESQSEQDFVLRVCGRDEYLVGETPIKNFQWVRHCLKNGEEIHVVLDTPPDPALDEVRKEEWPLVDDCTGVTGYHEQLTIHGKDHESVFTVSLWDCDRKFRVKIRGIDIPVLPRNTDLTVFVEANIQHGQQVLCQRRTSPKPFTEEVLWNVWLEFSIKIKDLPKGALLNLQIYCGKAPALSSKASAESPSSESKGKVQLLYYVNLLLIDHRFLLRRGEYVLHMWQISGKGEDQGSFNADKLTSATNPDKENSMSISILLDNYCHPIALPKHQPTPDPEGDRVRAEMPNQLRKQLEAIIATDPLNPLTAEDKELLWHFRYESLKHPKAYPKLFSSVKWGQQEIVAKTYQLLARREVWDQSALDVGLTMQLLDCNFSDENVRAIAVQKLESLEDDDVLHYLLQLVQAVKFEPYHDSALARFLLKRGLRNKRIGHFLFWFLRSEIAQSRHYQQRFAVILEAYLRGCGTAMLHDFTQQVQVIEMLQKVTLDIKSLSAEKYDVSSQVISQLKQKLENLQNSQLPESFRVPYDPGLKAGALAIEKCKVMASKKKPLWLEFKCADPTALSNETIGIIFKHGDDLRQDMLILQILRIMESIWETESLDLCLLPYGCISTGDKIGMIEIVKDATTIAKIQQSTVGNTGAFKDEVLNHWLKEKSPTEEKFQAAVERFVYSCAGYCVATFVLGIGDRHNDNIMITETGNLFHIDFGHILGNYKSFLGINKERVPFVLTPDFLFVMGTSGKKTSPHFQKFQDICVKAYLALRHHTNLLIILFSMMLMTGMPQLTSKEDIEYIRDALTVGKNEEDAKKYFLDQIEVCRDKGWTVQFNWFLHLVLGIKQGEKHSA
In short: as §2

[6] = purified human mTOR enzyme, DELFIA format
[7] = PI3 Kinase α isoform, fluorescence polarization
[8] = PI3 Kinase γ isoform, fluorescence polarization

N#CCCn1ncc2c(N3CC4CCC(C3)O4)nc(-c3ccc(NC(=O)Nc4ccc(N5CCOCC5)nc4)cc3)nc21 [Example 223, 1-{4-[1-(2-cyanoethyl)-4-(8-oxa-3-azabicyclo[3.2.1]oct-3-yl)-1H-pyrazolo[3,4-d]pyrimidin-6-yl]phenyl}-3-(6-morpholin-4-ylpyridin-3-yl)urea] showed an IC50 [1] of 0.000265 µM, an IC50 [2] of 0.021 µM and an IC50 [3] of 0.01 µM. For the same compound, the IC50 ([4]; PI3 Kinase α) was 1.66 µM and the IC50 ([5]; PI3 Kinase γ) was > 10 µM.
CCn1ncc2c(N3CC4CCC(C3)O4)nc(-c3ccc4[nH]ccc4c3)nc21 [Example 76, 1-ethyl-6-(1H-indol-5-yl)-4-(8-oxa-3-azabicyclo[3.2.1]oct-3-yl)-1H-pyrazolo[3,4-d]pyrimidine] was tested, and the IC50 [1] was 0.029 µM, the IC50 [2] was 7 µM and the IC50 [3] was 1.7 µM. The IC50 ([4]; PI3 Kinase α) was 6.69 µM and the IC50 ([5]; PI3 Kinase γ) was > 10 µM.
CNC(=O)Nc1ccc(-c2nc(N3CC4COC(C3)O4)c3cnn(C)c3n2)cc1 (centres unmarked) [Example 392, 1-{4-[4-(6,8-dioxa-3-azabicyclo[3.2.1]oct-3-yl)-1-methyl-1H-pyrazolo[3,4-d]pyrimidin-6-yl]phenyl}-3-methylurea] gave an IC50 [1, 6] of 0.0395 µM, an IC50 [2] of 4.8 µM and an IC50 [3] of 1.2 µM. The IC50 [4, 7] was 0.582 µM and the IC50 [5, 8] was 11 µM.
COC(=O)Nc1ccc(-c2nc(N3CC4CCC(C3)O4)c3sccc3n2)cc1 [Example 416, methyl {4-[4-(8-oxa-3-azabicyclo[3.2.1]oct-3-yl)thieno[3,2-d]pyrimidin-2-yl]phenyl}carbamate] was tested, and the IC50 [1, 6] was 0.0086 µM, the IC50 [2] was 9.1 µM and the IC50 [3] was 1.85 µM. The IC50 [4, 7] was 6.2 µM and the IC50 [5, 8] was > 10 µM.
Compound CNC(=O)Nc1ccc(-c2nc(N3CC4CCC(C3)O4)c3cnn(CCF)c3n2)cc1 [Example 241, 1-{4-[1-(2-fluoroethyl)-4-(8-oxa-3-azabicyclo[3.2.1]oct-3-yl)-1H-pyrazolo[3,4-d]pyrimidin-6-yl]phenyl}-3-methylurea] has an IC50 [1] of 0.00095 µM, an IC50 [2] of 0.23 µM and an IC50 [3] of 0.11 µM. The IC50 ([4]; PI3 Kinase α) was 0.551 µM and the IC50 ([5]; PI3 Kinase γ) was > 10 µM.
CN(C)CCn1ncc2c(N3CC4CCC(C3)O4)nc(-c3ccc(NC(=O)NC4CC4)cc3)nc21 [Example 161, 1-cyclopropyl-3-(4-{1-[2-(dimethylamino)ethyl]-4-(8-oxa-3-azabicyclo[3.2.1]oct-3-yl)-1H-pyrazolo[3,4-d]pyrimidin-6-yl}phenyl)urea] gave an IC50 [1] of 0.0084 µM, an IC50 [2] of 2.2 µM and an IC50 [3] of 0.21 µM. For the same compound, the IC50 ([4]; PI3 Kinase α) was 3.6 µM and the IC50 ([5]; PI3 Kinase γ) was > 10 µM.
With CC(=O)Nc1ccc(-c2nc(N3CC4CCC(C3)O4)c3sccc3n2)cc1 [Example 415, N-{4-[4-(8-oxa-3-azabicyclo[3.2.1]oct-3-yl)thieno[3,2-d]pyrimidin-2-yl]phenyl}acetamide] the IC50 [1, 6] was 0.026 µM, the IC50 [2] was 8.5 µM and the IC50 [3] was 1.7 µM. The IC50 [4, 7] was 4.37 µM and the IC50 [5, 8] was > 10 µM.
